Key:
[1] = test system: GCT cell lines; assay: XTT cell viability assay, GCT cell lines (pre-screen / summary); assay type: cell-based, Human; conditions: first pre-screen, SE and EC proxies TCam-2 and 2102EP, XTT
Protocol: The […] (XTT) assays were performed as described previously. In summary, for GCT and fibroblast cell lines 5 × 10^3 cells (3 × 10^3 for UC, PCa and RCC cell lines) per 96-well were seeded and different drug concentrations (see Additional file 2: Fig. S2, Additional file 3: Fig. S3) or corresponding solvents were added to the cells the following day. For drug details see Additional file 12: Table S2 C. Each condition was analyzed in four technical replicates and EC50 values were calculated by GraphPad Prism v8.

[2] = test system: histone modifications in 2102EP cells; assay: Mass spectrometry analysis of histone modifications (Mod Spec); assay type: cell-based, Human
Protocol: 2102EP cells were treated with the EC50 concentrations for Quisinostat, JIB-04, Chaetocin, MZ-1, LP99, PRT4165, GSK343 and DMSO as solvent control. The cells were harvested via trypsinization after 16 h. The mass spectrometric analysis of histone modifications was outsourced to the Mod Spec service by Active Motif (Carlsbad, CA, USA). Histone extraction and mass spectrometric analysis was performed as described previously. Raw data were transformed into z-scores as the input. The heatmap was generated in R using ‘pheatmap’ with default settings and provided by Active Motif.

[3] = test system: DNA methylation (5mC, 5hmC) in 2102EP cells; assay: DNA slot blot (5mC, 5hmC); assay type: cell-based, Human; conditions: 24 h
[4] = test system: transcriptome of 2102EP cells; assay: RNA sequencing; assay type: cell-based, Human; conditions: 16 h
Protocol: Transcriptome analysis has been performed as previously described at the core facility ‘Genomics & Transcriptomics’ (Prof. Dr. Karl Köhrer, Biomedical Research Center, Heinrich Heine University, Düsseldorf, Germany) and has been publicly shared via GEO (https://www.ncbi.nlm.nih.gov/geo/, GSE189472). RNA samples were quantified and measured as previously described. Statistical analyses were performed using the ‘Differential Expression in two groups’ tool (version 1.02) (Qiagen) and the resulting p values were corrected for multiple testing by false discovery rate (FDR). Accompanying PCA and heatmap were generated using Qlucore Omics Explorer 3.7 (Qlucore AB, Lund, Sweden). Values of solvent controls wereaveraged from the studies GSE189472, GSE190792 and GSE190022 [95].

[5] = test system: phosphorylated kinase targets in 2102EP cells; assay: Proteome Profiler Human Phospho-Kinase Array; assay type: cell-based; conditions: 16 h
Protocol: For the detection of phosphorylated kinase targets, the Proteome Profiler Human Phospho-Kinase Array Kit (R&D Systems, Abingdon, UK) was used according to the manufacturer’s instructions. The ChemiDoc Imaging System (Bio-Rad Laboratories, Feldkirchen, Germany) was used for detection. 2102EP cells were harvested after 16 h of treatment with the epi-drugs. Pixel density was analyzed using Fiji ImageJ 1.53c.

[6] = 2102EP cells, Mod Spec raw data
[7] = 2102EP, EC50, 16 h, vs solvent control
[8] = sorted data log2>±1.5, FDR p<0.05

Clc1ccc(N/N=C(\c2ccccc2)c2ccccn2)nc1 [JIB-04]
EC50 / effective concentration in words [1]: nanomolar range
H1.4: K25AC, % of peptide pool [2, 6]: 0.003915%
H1.4: K25ME1, % of peptide pool [2, 6]: 2.18%
H1.4: K25ME2, % of peptide pool [2, 6]: 0.06041%
H1.4: K25ME3, % of peptide pool [2, 6]: 0.002903%
H1.4: K25UN, % of peptide pool [2, 6]: 97.7528%
H2A1: K13AC, % of peptide pool [2, 6]: 0.01774%
H2A1: K13UN, % of peptide pool [2, 6]: 99.9823%
H2A1: K15AC, % of peptide pool [2, 6]: 0.006947%
H2A1: K15UB, % of peptide pool [2, 6]: 0%
H2A1: K15UN, % of peptide pool [2, 6]: 99.9931%
H2A3: K13AC, % of peptide pool [2, 6]: 0.0449%
H2A3: K13UN, % of peptide pool [2, 6]: 99.9551%
H2A3: K15AC, % of peptide pool [2, 6]: 0.04676%
H2A3: K15UB, % of peptide pool [2, 6]: 0%
H2A3: K15UN, % of peptide pool [2, 6]: 99.9532%
H2A: K5AC, % of peptide pool [2, 6]: 17.3435%
H2A: K5UN, % of peptide pool [2, 6]: 82.6565%
H2A: K9AC, % of peptide pool [2, 6]: 2.608%
H2A: K9UN, % of peptide pool [2, 6]: 97.3916%
H2A: K36AC, % of peptide pool [2, 6]: 0.02653%
H2A: K36UN, % of peptide pool [2, 6]: 99.9735%
H3: K9AC, % of peptide pool [2, 6]: 0.7026%
H3: K9ME1, % of peptide pool [2, 6]: 34.4011%
H3: K9ME2, % of peptide pool [2, 6]: 29.5437%
H3: K9ME3, % of peptide pool [2, 6]: 3.1432%
H3: K9UN, % of peptide pool [2, 6]: 32.2094%
H3: K14AC, % of peptide pool [2, 6]: 29.7131%
H3: K14UN, % of peptide pool [2, 6]: 70.2869%
H3: K18AC, % of peptide pool [2, 6]: 13.9058%
H3: K18ME1, % of peptide pool [2, 6]: 0.1878%
H3: K18UN, % of peptide pool [2, 6]: 85.9064%
H3: K23AC, % of peptide pool [2, 6]: 21.6519%
H3: K23ME1, % of peptide pool [2, 6]: 0.01047%
H3: K23UN, % of peptide pool [2, 6]: 78.3377%
H3: K56AC, % of peptide pool [2, 6]: 0.09324%
H3: K56ME1, % of peptide pool [2, 6]: 0.04566%
H3: K56UN, % of peptide pool [2, 6]: 99.8611%
H3: K64AC, % of peptide pool [2, 6]: 0.01353%
H3: K64UN, % of peptide pool [2, 6]: 99.9865%
H3: K79AC, % of peptide pool [2, 6]: 0.03684%
H3: K79ME1, % of peptide pool [2, 6]: 12.2939%
H3: K79ME2, % of peptide pool [2, 6]: 5.57%
H3: K79ME3, % of peptide pool [2, 6]: 6.201%
H3: K79UN, % of peptide pool [2, 6]: 75.8979%
H3: K122AC, % of peptide pool [2, 6]: 0.03356%
H3: K122UN, % of peptide pool [2, 6]: 99.9664%
H3: Q19ME1, % of peptide pool [2, 6]: 0.003167%
H3: Q19UN, % of peptide pool [2, 6]: 99.9968%
H3: Q55ME1, % of peptide pool [2, 6]: 0.032%
H3: Q55UN, % of peptide pool [2, 6]: 99.968%
H3: R42ME2, % of peptide pool [2, 6]: 1.896%
H3: R42UN, % of peptide pool [2, 6]: 98.1041%
H3: R49ME2, % of peptide pool [2, 6]: 4.211%
H3: R49UN, % of peptide pool [2, 6]: 95.789%
H3R2UN: K4AC, % of peptide pool [2, 6]: 0.05876%
H3R2UN: K4ME1, % of peptide pool [2, 6]: 17.7716%
H3R2UN: K4ME2, % of peptide pool [2, 6]: 0.2231%
H3R2UN: K4ME3, % of peptide pool [2, 6]: 0.06844%
H3R2UN: K4UN, % of peptide pool [2, 6]: 81.8781%
H3R2UN: Q5ME1, % of peptide pool [2, 6]: 0.02831%
H3R2UN: Q5UN, % of peptide pool [2, 6]: 99.9717%
H3.1: K27AC, % of peptide pool [2, 6]: 2.414%
H3.1: K27ME1, % of peptide pool [2, 6]: 49.3304%
H3.1: K27ME2, % of peptide pool [2, 6]: 16.204%
H3.1: K27ME3, % of peptide pool [2, 6]: 1.814%
H3.1: K27UN, % of peptide pool [2, 6]: 30.2382%
H3.1: K36AC, % of peptide pool [2, 6]: 0.1106%
H3.1: K36ME1, % of peptide pool [2, 6]: 13.2702%
H3.1: K36ME2, % of peptide pool [2, 6]: 51.7553%
H3.1: K36ME3, % of peptide pool [2, 6]: 20.9267%
H3.1: K36UN, % of peptide pool [2, 6]: 13.9372%
H3.3: K27AC, % of peptide pool [2, 6]: 4.408%
H3.3: K27M, % of peptide pool [2, 6]: 0%
H3.3: K27ME1, % of peptide pool [2, 6]: 52.2182%
H3.3: K27ME2, % of peptide pool [2, 6]: 11.913%
H3.3: K27ME3, % of peptide pool [2, 6]: 2.973%
H3.3: K27UN, % of peptide pool [2, 6]: 28.488%
H3.3: K36AC, % of peptide pool [2, 6]: 1.2917%
H3.3: K36ME1, % of peptide pool [2, 6]: 11.4367%
H3.3: K36ME2, % of peptide pool [2, 6]: 56.7436%
H3.3: K36ME3, % of peptide pool [2, 6]: 20.5666%
H3.3: K36UN, % of peptide pool [2, 6]: 9.961%
H4: K5AC, % of peptide pool [2, 6]: 7.467%
H4: K5UN, % of peptide pool [2, 6]: 92.5334%
H4: K8AC, % of peptide pool [2, 6]: 11.3876%
H4: K8UN, % of peptide pool [2, 6]: 88.6124%
H4: K12AC, % of peptide pool ([2]; 2102EP cells, Mod Spec raw data, histone H4 K12 acetylated): 6.714 % of peptide pool
H4: K12UN, % of peptide pool ([2]; 2102EP cells, Mod Spec raw data, histone H4 K12 unmodified): 93.2862 % of peptide pool
H4: K16AC, % of peptide pool ([2]; 2102EP cells, Mod Spec raw data, histone H4 K16 acetylated): 46.6822 % of peptide pool
H4: K16UN, % of peptide pool ([2]; 2102EP cells, Mod Spec raw data, histone H4 K16 unmodified): 53.3178 % of peptide pool
H4: K20AC, % of peptide pool ([2]; 2102EP cells, Mod Spec raw data, histone H4 K20 acetylated): 14.5151 % of peptide pool
H4: K20ME2, % of peptide pool ([2]; 2102EP cells, Mod Spec raw data, histone H4 K20 dimethylated): 53.9426 % of peptide pool
H4: K20ME1, % of peptide pool ([2]; 2102EP cells, Mod Spec raw data, histone H4 K20 monomethylated): 5.183 % of peptide pool
H4: K20ME3, % of peptide pool ([2]; 2102EP cells, Mod Spec raw data, histone H4 K20 trimethylated): 2.177 % of peptide pool
H4: K20UN, % of peptide pool ([2]; 2102EP cells, Mod Spec raw data, histone H4 K20 unmodified): 24.182 % of peptide pool
change of histone modifications of the expected mode of action (Mod Spec) [2, 7]: slightly increased H3K4me2/me3 marks
off-target changes of histone modifications (Mod Spec) [2, 7]: decrease in H4K16ac and H4K20ac
reduction in 5mC levels [3]: 27%
DDIT4 Log2 fold change vs. DMSO [4, 8]: 1.60
EIF3CL Log2 fold change vs. DMSO [4, 8]: -1.72
SLC16A3 Log2 fold change vs. DMSO [4, 8]: 1.76
A1BG Log2 fold change vs. DMSO ([4]; unsorted data): -0.0173
A1CF Log2 fold change vs. DMSO ([4]; unsorted data): -2.00
A2M Log2 fold change vs. DMSO ([4]; unsorted data): 0.04
CREB, STAT3 and STAT5 phosphorylation and total levels of β-Catenin and HSP60 [5]: decreased
ERK1/2 phosphorylation [5]: decreased
p53 S15 phosphorylation [5]: increased

Source: PMC8742467, “Therapeutical interference with the epigenetic landscape of germ cell tumors: a comparative drug study and new mechanistical insights” (Clinical Epigenetics, 2022)
